Experimental data published in patent publication US20260315434A1, “USE OF GUAIACOL SESQUITERPENE LACTONE DERIVATIVES” (NANJING UNIVERSITY OF CHINESE MEDICINE, priority 2023, published 2026).

Columns and labels:
[1] = system: T cells / MDSCs; assay: Promotion of T cell proliferation in a co-culture model of MDSCs and T cells; assay type: cell-based, mouse; conditions: for activation at 1 µM: Mus musculus, T-cell, 12 h, read-out: T-cell proliferation rate (%), 1 μM, MDSCs treated 12 hours, co-culture of MDSCs and T cells, compared to the control group
Method: Under sterile conditions, the tibia was removed, both ends of the bone were cut, and bone marrow was repeatedly flushed into a 15 mL centrifuge tube using a 1 mL syringe filled with culture medium. Centrifuge at 1600 rpm for 5 min to collect bone marrow cells. […] The spleen cell suspension was then transferred into a 15 mL centrifuge tube. Centrifuge at 1600 rpm for 5 min to collect T cells. Wash twice with 1×PBS. Resuspend the centrifuged T cells in 1 mL PBS and add 1 mL of 10 μM CFDA-SE solution. Incubate at room temperature for 8 min. […] After drug administration, collect MDSC cells into centrifuge tubes. Centrifuge at 1600 rpm for 5 min, remove supernatant, resuspend in 1 mL fresh medium, and plate. Add 1 mL stimulated activated T cells (1:1 ratio) for 48 h co-culture. After incubation, collect cells into centrifuge tubes, wash twice with PBS, and incubate with Fc antibody at room temperature in the dark for 10 min. Add CD3-labeled flow cytometry antibody and incubate at 4° C. in the dark for 30 min. After incubation, wash cells with PBS, resuspend in 300 μL PBS, and analyze by flow cytometry.

[2] = Conversion (release) of prodrug salts to parent compound in HEPES buffer pH 7.4; assay type: in vitro ADME; conditions: for degraded at 1 h / degraded at 2 h / degraded at 4 h / degraded at 8 h / degraded at 12 h: hepes buffer, pH 7.4, HEPES pH 7.4, 37 °C, read-out: Release rate (conversion to Compound 1); for Release rate (conversion to Compound 1): HEPES pH 7.4, 37 °C
Method: (§1) Pharmaceutically acceptable salts of guaiane-type sesquiterpene lactone derivatives were selected and evaluated for their conversion rates to Compound 1 and Compound 83 in plasma and HEPES buffer, with results shown in Tables 2-1, 2-2, 3-1, and 3-2.
Experimental Method: Preparation of HEPES 7.4 Solution: Dissolve 1.6 g NaCl, 0.074 g KCl, 0.027 g Na2HPO4, 0.2 g glucose, and 1 g 4-(2-Hydroxyethyl)piperazine-1-ethanesulfonic acid (HEPES) solution in 90 mL distilled water. Adjust the pH to 7.4 using 0.5 M NaOH, then dilute to a final volume 100 mL with distilled water.
(§2) Sample Analysis: Dissolve 0.6 mg of the compound in 250 μL of deionized water separately. Add 250 μL of mouse serum or HEPES 7.4 solution to the sample, incubate at a constant temperature of 37° C., and collect samples at different time points. Pipette 20 μL of the sample to an EP tube, add 60 μL of methanol, vortex to mix thoroughly, and centrifuge at 12,000 rpm at 4° C. for 10 min. At 1 h, 2 h, 4 h, 8 h, and 12 h respectively, collect the supernatant for HPLC analysis. Inject 10 μL of sample and record the corresponding peak areas. Chromatographic conditions: Hanbang C18 column (4.6×250 mm, 5 μm); mobile phase: acetonitrile: […] ammonium formate solution=60:40; flow rate 1.0 mL/min; detection wavelength 210 nm; column temperature 30° C.

[3] = Conversion (release) of prodrug salts to parent compound in mouse plasma; assay type: in vitro ADME; conditions: 37 °C; for metabolised at 1 h / metabolised at 2 h / metabolised at 4 h / metabolised at 8 h / metabolised at 12 h: mouse, plasma, read-out: Release rate (conversion to Compound 1)
Method: as §1
Plasma Preparation: Collect mouse plasma into an EP tube pre-loaded with sodium heparin, centrifuge at 8000 rpm for 10 minutes at 4° C., and then collect the supernatant.
as §2

C[C@@]12CC[C@@H]3[C@H](OC(=O)[C@H]3CN3CCNCC3)[C@@H]3[C@]1(CC[C@@]3(C)O)C2 [Compound 7]
activation at 1 µM [1]: 0 to 20%

C[C@@]12CC[C@@H]3[C@H](OC(=O)[C@H]3CN3CCCC3)[C@@H]3[C@]1(CC[C@@]3(C)O)C2 [Compound 22]
degraded at 1 h ([2]; 1 h): 6.4%
degraded at 2 h ([2]; 2 h): 14.8%
degraded at 4 h ([2]; 4 h): 26.6%
degraded at 8 h ([2]; 8 h): 41.3%
degraded at 12 h ([2]; 12 h): 53.7%
metabolised at 1 h ([3]; 1 h): 7.4%
metabolised at 2 h ([3]; 2 h): 16.8%
metabolised at 4 h ([3]; 4 h): 27.6%
metabolised at 8 h ([3]; 8 h): 46.3%
metabolised at 12 h ([3]; 12 h): 57.7%

C[C@@]12CC[C@@H]3[C@H](OC(=O)[C@H]3CN3CCNCC3)[C@@H]3[C@]1(CC[C@@]3(C)O)C2 [Compound 26]
degraded at 1 h ([2]; 1 h): 6.8%
degraded at 2 h ([2]; 2 h): 16.1%
degraded at 4 h ([2]; 4 h): 27.3%
degraded at 8 h ([2]; 8 h): 43.5%
degraded at 12 h ([2]; 12 h): 55.6%
metabolised at 1 h ([3]; 1 h): 7.8%
metabolised at 2 h ([3]; 2 h): 17.1%
metabolised at 4 h ([3]; 4 h): 29.3%
metabolised at 8 h ([3]; 8 h): 48.5%
metabolised at 12 h ([3]; 12 h): 65.6%

CCN1CCN(C[C@@H]2C(=O)O[C@H]3[C@H]2CC[C@@]2(C)C[C@]24CC[C@@](C)(O)[C@H]34)CC1 [Compound 27]
degraded at 1 h ([2]; 1 h): 6.9%
degraded at 2 h ([2]; 2 h): 15.4%
degraded at 4 h ([2]; 4 h): 27.4%
degraded at 8 h ([2]; 8 h): 42.2%
degraded at 12 h ([2]; 12 h): 54.8%
metabolised at 1 h ([3]; 1 h): 7.9%
metabolised at 2 h ([3]; 2 h): 17.4%
metabolised at 4 h ([3]; 4 h): 28.4%
metabolised at 8 h ([3]; 8 h): 48.2%
metabolised at 12 h ([3]; 12 h): 59.1%

CCN(CC)C[C@@H]1C(=O)O[C@H]2[C@H]1CC[C@@]1(C)C[C@]13CC[C@@](C)(O)[C@H]23 [Compound 28]
degraded at 1 h ([2]; 1 h): 6.8%
degraded at 2 h ([2]; 2 h): 14.5%
degraded at 4 h ([2]; 4 h): 24.4%
degraded at 8 h ([2]; 8 h): 40.4%
degraded at 12 h ([2]; 12 h): 50%
metabolised at 1 h ([3]; 1 h): 6.8%
metabolised at 2 h ([3]; 2 h): 14.5%
metabolised at 4 h ([3]; 4 h): 24.4%
metabolised at 8 h ([3]; 8 h): 40.4%
metabolised at 12 h ([3]; 12 h): 49.1%

CN(C)C[C@@H]1C(=O)O[C@H]2[C@H]1CC[C@@]1(C)C[C@]13CC[C@@](C)(O)[C@H]23 [Compound 39]
Release rate (conversion to Compound 1) ([2]; 1 h, 60 min): 6.6%
degraded at 2 h ([2]; 2 h): 15%
degraded at 4 h ([2]; 4 h): 26.8%
degraded at 8 h ([2]; 8 h): 42.7%
degraded at 12 h ([2]; 12 h): 54.3%
metabolised at 1 h ([3]; 1 h): 6.6%
metabolised at 2 h ([3]; 2 h): 14%
metabolised at 4 h ([3]; 4 h): 26.2%
metabolised at 8 h ([3]; 8 h): 43.6%
metabolised at 12 h ([3]; 12 h): 52.8%

CN(C)C[C@@H]1C(=O)O[C@H]2[C@H]1CC[C@@]1(C)C[C@]13CC[C@@](C)(O)[C@H]23 [Compound 40]
Release rate (conversion to Compound 1) ([2]; 1 h, 60 min): 6.8%
Release rate (conversion to Compound 1) ([2]; 2 h, 120 min): 14.6%
Release rate (conversion to Compound 1) ([2]; 4 h, 240 min): 26.2%
Release rate (conversion to Compound 1) ([2]; 8 h, 480 min): 44.0%
Release rate (conversion to Compound 1) ([2]; 12 h, 720 min): 50.2%
Release rate (conversion to Compound 1) ([3]; 1 h, 60 min): 6.7%
Release rate (conversion to Compound 1) ([3]; 2 h, 120 min): 14.2%
Release rate (conversion to Compound 1) ([3]; 4 h, 240 min): 26.8%
Release rate (conversion to Compound 1) ([3]; 8 h, 480 min): 44.0%
Release rate (conversion to Compound 1) ([3]; 12 h, 720 min): 52.6%

CN(C)C[C@@H]1C(=O)O[C@H]2[C@H]1CC[C@@]1(C)C[C@]13CC[C@@](C)(O)[C@H]23 [Compound 41]
Release rate (conversion to Compound 1) ([2]; 1 h, 60 min): 7.0%
Release rate (conversion to Compound 1) ([2]; 2 h, 120 min): 16.2%
Release rate (conversion to Compound 1) ([2]; 4 h, 240 min): 27.3%
Release rate (conversion to Compound 1) ([2]; 8 h, 480 min): 43.4%
Release rate (conversion to Compound 1) ([2]; 12 h, 720 min): 53.2%
Release rate (conversion to Compound 1) ([3]; 1 h, 60 min): 7.8%
Release rate (conversion to Compound 1) ([3]; 2 h, 120 min): 17.2%
Release rate (conversion to Compound 1) ([3]; 4 h, 240 min): 28.0%
Release rate (conversion to Compound 1) ([3]; 8 h, 480 min): 46.1%
Release rate (conversion to Compound 1) ([3]; 12 h, 720 min): 54.8%

CN(C)C[C@@H]1C(=O)O[C@H]2[C@H]1CC[C@@]1(C)C[C@]13CC[C@@](C)(O)[C@H]23 [Compound 42]
Release rate (conversion to Compound 1) ([2]; 1 h, 60 min): 7.0%
Release rate (conversion to Compound 1) ([2]; 2 h, 120 min): 15.0%
Release rate (conversion to Compound 1) ([2]; 4 h, 240 min): 25.2%
Release rate (conversion to Compound 1) ([2]; 8 h, 480 min): 42.8%
Release rate (conversion to Compound 1) ([2]; 12 h, 720 min): 52.3%
Release rate (conversion to Compound 1) ([3]; 1 h, 60 min): 6.3%
Release rate (conversion to Compound 1) ([3]; 2 h, 120 min): 14.2%
Release rate (conversion to Compound 1) ([3]; 4 h, 240 min): 26.2%
Release rate (conversion to Compound 1) ([3]; 8 h, 480 min): 41.0%
Release rate (conversion to Compound 1) ([3]; 12 h, 720 min): 47.2%

CC1CCN(C[C@@H]2C(=O)O[C@H]3[C@H]2CC[C@@]2(C)C[C@]24CC[C@@](C)(O)[C@H]34)CC1 [Compound 43]
T-cell proliferation rate (%) ([1]; 1 μM, MDSCs treated 12 hours, co-culture of MDSCs and T cells, compared to the control group): + (T-cell proliferation rate within the 0-20% range compared to the control group)

CC(C)(C)OC(=O)N1CCN(C[C@@H]2C(=O)O[C@H]3[C@H]2CC[C@@]2(C)C[C@]24CC[C@@](C)(O)[C@H]34)CC1 [Compound 44]
activation at 1 µM [1]: 0 to 20%

CN(C)C[C@@H]1C(=O)O[C@H]2[C@H]1CC[C@@]1(C)C[C@]13C[C@@H](O)[C@@](C)(O)[C@H]23 [Compound 60]
activation at 1 µM [1]: 0 to 20%

CC1=C2[C@H]3OC(=O)[C@@H](CN(C)C)[C@@H]3CC[C@@]3(C)C[C@@]23CC1 [Compound 62]
activation at 1 µM [1]: 0 to 20%

CCC(=O)O[C@]1(C)CC[C@@]23C[C@]2(C)CC[C@@H]2[C@H](CC(=O)[C@H]2CN(C)C)[C@H]31 [Compound 63]
activation at 1 µM [1]: 0 to 20%

C=C1C(=O)O[C@H]2[C@H]1CCC(C)=C1CC[C@@](C)(OC(=O)NC)[C@@H]12 [Compound 64]
activation at 1 µM [1]: > 40%

C=C1C(=O)O[C@H]2[C@H]1CCC(C)=C1CC[C@@](C)(OC(=O)NCC)[C@@H]12 [Compound 65]
activation at 1 µM [1]: 0 to 20%

C=C1C(=O)O[C@H]2[C@H]1CCC(C)=C1CC[C@@](C)(OC(=O)NCCC)[C@@H]12 [Compound 66]
activation at 1 µM [1]: 0 to 20%

C=C1C(=O)O[C@H]2[C@H]1CCC(C)=C1CC[C@@](C)(OC(=O)NCCCC)[C@@H]12 [Compound 67]
activation at 1 µM [1]: 20 to 40%

C=C1C(=O)O[C@H]2[C@H]1CCC(C)=C1CC[C@@](C)(OC(=O)NC(C)C)[C@@H]12 [Compound 68]
activation at 1 µM [1]: 0 to 20%

C=C1C(=O)O[C@H]2[C@H]1CCC(C)=C1CC[C@@](C)(OC(=O)NC(CC)CC)[C@@H]12 [Compound 69]
activation at 1 µM [1]: 20 to 40%
